Measured values reported in PubChem BioAssay (NCI).
Where “and” joins values, the source holds several entries; their conditions need not be identical. Equal entries are not always repeated.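 How tested: cells in 96-well plates exposed to compound for 48 hours at five concentrations. GI50 marks 50% less growth. TGI: concentration producing complete growth inhibition.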 Calls of active or inactive are those of the source. No stated cut-off is given here; in the data, active means GI50 below about 0.43 µM; inactive means the rest.

What was measured:
Assay in all cases: growth of human tumour cells (NCI), 48 h
[1] = tested on: HOP-18 NSCLC
[2] = tested on: DMS 273 small cell lung
[3] = tested on: DMS 114 small cell lung
[4] = tested on: RXF-631 renal
[5] = tested on: HS 578T breast
[6] = tested on: MDA-MB-435
[7] = tested on: DU-145 prostate
[8] = tested on: T-47D breast
[9] = tested on: MDA-N
[10] = tested on: MDA-MB-231 breast

SMILES | TGI [1] [µM] | TGI [2] | TGI [3] | TGI [4] | further results
CC(=O)CCCCCCCCCCCC[C@@H]1CC[C@H](C)[C@H](O)N1 | > 100 | > 100 µM | > 100 µM | – | –
Clc1ccc(-n2nnc(C3=NCCN3)c2-c2ccccc2)cc1 | > 100 | > 100 µM | > 100 µM | – | –
O=C1C=C[C@@]23CC1C(O)C[C@H]2C=Cc1ccccc13 (some centres not stated) | – | – | > 100 µM | – | –
COC(=O)C1=C(C)N(NC(N)=O)C2(N)N(NC(N)=O)C(C)=C(C(=O)OC)C12C(=O)OC (configuration not stated) | > 100 | > 100 µM | > 100 µM | > 100 µM | –
Clc1ccc(Cl)c2[s+]snc12 | > 100 | > 62.7 µM | > 66.8 µM | > 100 µM | –
N#CC(C(=O)/C(=N/N)C(C#N)c1ccc(Cl)cc1)c1ccc(Cl)cc1 (configuration not stated) | > 100 | – | > 100 µM | > 100 µM | –
COc1ccc(C=C2C(=O)OC(C)(C)OC2=O)cc1OC | – | – | > 100 µM | – | –
C/C(O)=C(\N=O)C(=O)NCCc1ccccc1 | > 100 | > 93.4 µM | > 60 µM | – | –
[Cl][Bi]([O]c1ccccn1)[O]c1ccccn1 | – | > 100 µM | > 100 µM | – | GI50 [2]: > 100 µM; GI50 [3]: 57 µM
COc1c(O)c2c(c3cc(C(=O)N4CCc5c4c(O)c(OC)c4[nH]c(C(=O)N6CC7CC78C6=CC(=O)c6[nH]cc(C)c68)cc54)[nH]c13)CCN2C(N)=O (configuration not stated) | 0.0856 | 7.18 nM and 0.0106 µg/mL | 15.1 nM and 0.0121 µg/mL | – | GI50 [1]: 0.0126 µM; outcome [1]: inactive; TGI [5]: 3.41 µM; TGI [6]: 0.783 µM; TGI [7]: > 100 µM; TGI [8]: 40 µM; GI50 [2]: 1.98 ng/mL; GI50 [3]: 2.76 ng/mL; TGI [9]: 22.3 µM; TGI [10]: > 100 µM
Cc1ccc(NC(=O)CC2C(=O)Nc3ccccc3S2=O)cc1C (configuration not stated) | – | > 100 µM | > 100 µM | – | –
CC(=O)Nc1ccc(C(=O)N2N=C(C)/C(=C/c3ccccc3O)C2=O)cc1 | > 100 | > 100 µM | > 100 µM | – | –
CCCC1c2c(ccc3ccccc23)Oc2ccc3ccccc3c21 | – | – | – | – | TGI [5]: > 100 µM; TGI [6]: > 100 µM; TGI [7]: > 100 µM; TGI [8]: > 100 µM; TGI [9]: > 100 µM; TGI [10]: > 100 µM
CC1OC(n2ncc(=O)[nH]c2=O)C=CC1=O (configuration not stated) | – | – | – | 32.5 µM and 43.5 µM | –
CC(=O)Nc1ccc(/C=C/[N+](=O)[O-])cc1 | – | – | – | – | TGI [5]: 32.6 µM; TGI [6]: 9.23 µM; TGI [7]: > 43.4 µM; TGI [8]: > 27.9 µM; TGI [9]: 6.59 µM; TGI [10]: 5.12 µM
CSc1nc(NC2OCC(OC(C)=O)C(OC(C)=O)C2OC(C)=O)c2c(OC(C)=O)c(C)c(=O)oc2n1 (configuration not stated) | > 100 | – | > 100 µM | > 100 µM | –
Cc1c(N=Nc2ccc([N+](=O)[O-])cc2)nc2scc(-c3ccccc3)n12 | – | – | – | – | TGI [5]: > 100 µM; TGI [6]: > 100 µM; TGI [7]: > 100 µM; TGI [8]: > 100 µM; TGI [9]: > 100 µM; TGI [10]: > 100 µM
CCN1C2=NC(=O)N(C)C(=O)C2(Cl)C(C(SC)S(=O)(=O)c2ccc(C)cc2)c2ccccc21 (configuration not stated) | – | > 100 µM | > 100 µM | 51.2 µM | –
O=C(O)c1cc2ccccc2c(O)c1O | – | – | – | – | TGI [5]: 45.4 µM; TGI [6]: 3.33 µM; TGI [7]: 32.3 µM; TGI [8]: 57.7 µM; TGI [9]: 4.01 µM; TGI [10]: 32.7 µM
COc1ccc(/C=N/N=C(\N)NO)cc1OC | – | > 100 µM | 92.5 µM | – | –
O=c1cc(C(F)(F)F)c2cc3c(cc2o1)NCCC3 | – | – | – | – | TGI [5]: 61.9 µM; TGI [6]: > 100 µM; TGI [7]: > 100 µM; TGI [8]: > 100 µM; TGI [9]: > 100 µM; TGI [10]: > 100 µM
CC(O)/C=C/C(CCC(C)CO)C(C)C (configuration not stated) | – | > 100 µM | > 100 µM | > 100 µM | –
O=C1NC(=S)NC(=O)C1=Cc1cc2c(cc1[N+](=O)[O-])OCO2 | > 100 | > 100 µM | 87.3 µM | > 100 µM | –
CCCC[C@H]1C(=O)O[C@H](C)[C@H](NC(=O)c2cccc(NC=O)c2O)C(=O)O[C@@H](C)[C@@H]1OC(=O)CC(C)C | – | – | – | – | TGI [5]: 37.7 µM; TGI [6]: 44.6 µM; TGI [7]: 40.7 µM; TGI [8]: 44.8 µM; TGI [9]: 51.9 µM; TGI [10]: 32.8 µM
CCCCCCCCCCC/C(=N/O)c1ccc(O)c2ncccc12 | 9.59 | 4.79 µM | 6.79 µM | – | –
O=C1C(Cl)=C(Cl)C(=O)N1C1C2CC3CC(C2)CC1C3 (configuration not stated) | > 100 | > 100 µM | > 100 µM | – | –
